One may read the EC50 as the concentration that produces a half-maximal response.

Where two headings read alike, the source gives them in different places.

The nature of one data set: in vitro. The note with it: human. The procedure:
(§1) Briefly, HepG2 cells are seeded at 4×10^4/well on a 96-well plate in 100 μL growth medium and incubated for 24 h at 37° C. The medium is removed and the cells are washed with PBS. Treatments of fruit extracts or antioxidant compounds in 100 μL treatment medium (Williams' Medium E supplemented with 2 mM L-glutamine and 10 mM Hepes) are applied to the cells and the plates are incubated at 37° C. for 24 h. The treatment medium is removed and the cells are washed with PBS. A volume of 50 μL/well methylene blue staining solution (98% HBSS, 0.67% glutaraldehyde, 0.6% methylene blue) is applied to each well and the plate is incubated at 37° C. for 1 h.
(§2) Excess dye is removed by immersing the plate in fresh deionized water until the water appears clear. The excess water should be tapped out of the wells and the plate allowed to air-dry briefly before addition of 100 μL elution solution (49% PBS, 50% ethanol, 1% acetic acid) to each well. The microplate is then placed on a bench-top shaker for 20 minutes to allow uniform elution. The absorbance is read at 570 nm with blank subtraction using, for example a MRX II DYNEX spectrophotometer (DYNEX Inc., Chantilly, Va.). Concentrations of pure compounds or fruit extracts that decrease the absorbance by more than 10% when compared to the control are considered to be cytotoxic.
(§3) Cytotoxicity was measured using the method of Oliver et al. (31) with modifications by our laboratory (32). […] The medium was removed and the cells were washed with PBS. Treatments of fruit extracts or antioxidant compounds in 100 μL treatment medium (Williams' Medium E supplemented with 2 mM L-glutamine and 10 mM Hepes) were applied to the cells and the plates were incubated at 37° C. for 24 h. The treatment medium was removed and the cells were washed with PBS. A volume of 50 μL/well methylene blue staining solution (98% HBSS, 0.67% glutaraldehyde, 0.6% methylene blue) was applied to each well and the plate was incubated at 37° C. for 1 h. The dye was removed and the plate was immersed in fresh deionized water three times, or until the water was clear. The water was tapped out of the wells and the plate was allowed to air-dry briefly before 100 μL elution solution (49% PBS, 50% ethanol, 1% acetic acid) was added to each well. The microplate was placed on a bench-top shaker for 20 minutes to allow uniform elution. The absorbance was read at 570 nm with blank subtraction using the MRX II DYNEX spectrophotometer (DYNEX Inc., Chantilly, Va.). Concentrations of pure compounds or fruit extracts that decreased the absorbance by more than 10% when compared to the control were considered to be cytotoxic.
(§4) The median cytotoxic concentration (CC50) was calculated for each fruit.
(§5) Briefly, HepG2 cells were seeded at 4×10^4/well on a 96-well plate in 100 μL growth medium and incubated for 24 h at 37° C. The medium was removed, and the cells were washed with PBS. Flavonoids in 100 μL growth medium were applied to the cells, and the plates were incubated at 37° C. for 24 h. The medium was removed, and the cells were washed with PBS before a volume of 50 μL/well methylene blue staining solution (98% HBSS, 0.67% glutaraldehyde, 0.6% methylene blue) was applied to each well, and the plate was incubated at 37° C. for 1 h. The dye was removed, and the plate was immersed in fresh deionized water until the water was clear. The water was tapped out of the wells, and the plate was allowed to air-dry briefly before 100 μL of elution solution (49% PBS, 50% ethanol, 1% acetic acid) was added to each well. The microplate was placed on a benchtop shaker for 20 min to allow uniform
(§6) elution. The absorbance was read at 570 nm with blank subtraction using the MRX II Dynex spectrophotometer (Dynex Inc., Chantilly, Va.). The median cytotoxic concentration (CC50) was calculated for each flavonoid.

Data set [1] concerns HepG2 cells. Description: in vitro. The method, then: as §1, §2, §3, §4, §5, §6
The test system of data set [2] is HepG2 cells. Description: Cellular antioxidant activity (CAA) assay: inhibition of peroxyl radical-induced DCFH oxidation. The class given is cell-based, human. The note with it: for EC50: Homo sapiens; for cellular antioxidant activity, result in words: no PBS wash protocol. The procedure: Cells (e.g., human hepatocellular carcinoma cells; HepG2) are seeded at a density of e.g., 6×10^4/well on a 96-well microplate in 100 μL growth medium/well. It is preferred that only the inside wells of e.g., a 96-well microplate are used for the assay, since the outer wells have increased variation compared to that of the inner wells. Twenty-four hours after seeding the growth medium is removed and the wells are washed with PBS. Triplicate wells are treated for 1 h with 100 μL of a test compound (e.g., pure phytochemical compounds or fruit extracts) plus 25 μM DCFH-DA dissolved in treatment medium.
600 μM ABAP is then applied to the cells in 100 μL HBSS and the 96-well microplate is placed into a plate reader e.g., Fluoroskan Ascent FL plate-reader (ThermoLabsystems, Franklin, Mass.) at 37° C. Emission at 538 nm is measured with excitation at 485 nm, for example every 5 min for 1 h. Each plate should include triplicate control and blank wells: control wells contain cells treated with DCFH-DA and oxidant; blank wells contain cells treated with dye and HBSS without oxidant.
A test compound is assayed in multiple wells of e.g., a 96-well cell culture plate. Some wells are washed with 100 μL of phosphate-buffered saline (PBS) prior to the addition of ABAP, while other wells were not washed prior to the addition of ABAP. It was noted that the measured antioxidant activity of some fruit extracts (e.g., blueberries) was different when a PBS wash was used compared to when there was no PBS wash (see Table 2; FIGS. 3 and 4). This is likely due to non-specific binding of certain antioxidant compounds to the outer membrane, or a reduced uptake of the compound, thus the ratio of antioxidant activity values obtained with a PBS wash compared to a non-PBS wash indicates the bioavailability of the test compound. In order to accurately measure the intracellular antioxidant activity of a test compound, a PBS wash prior to the addition of a peroxyl initiator (e.g, ABAP) is necessary. The values obtained for cells assayed using a PBS wash should be compared to values obtained for the same cells assayed without a PBS wash. One of skill in the art can plan and perform experiments on a test compound in the presence and absence of a PBS wash, in order to accurately assess the intracellular antioxidant capacity of the test compound.
After blank subtraction from the fluorescence readings, the area under the curve of fluorescence versus time is integrated to calculate the cellular antioxidant activity (CAA) value at each concentration of pure phytochemical compound or fruit extract as follows:
where ∫SA is the integrated area under the sample fluorescence versus time curve and ∫CA is the integrated area from the control curve. The median effective dose (EC50) was determined for the pure phytochemical compounds and fruit extracts from the median effect plot of log (fa/fu) vs. log (dose), where fa is the fraction affected and fu is the fraction unaffected by the treatment. To quantify intra-experimental variation, the EC50 values are stated as mean±SD for triplicate sets of data obtained from the same experiment. Inter-experimental variation is obtained for some representative pure phytochemical compounds and fruit extracts by averaging the fluorescence values from triplicate wells in each trial to obtain one EC50 value per experiment and calculating the mean±SD for at least four trials. In each experiment, a standard is used, for example quecetin, thus permitting the cellular antioxidant activities for a test compounds to be expressed as μmol quercetin equivalents (QE)/100 μmol compound. Fruit extracts are expressed as μmol QE/100 g fruit. In order to compare the antioxidant quality of different fruits, cellular antioxidant activity (CAA) is also calculated as μmol QE/100 μmol total phenolics.
Human hepatocellular carcinoma HepG2 cells were seeded at a density of 6×10^4/well on a 96-well microplate in 100 μL growth medium/well. […]

The mark [3] stands for this setting: HepG2, Example 1, Table 1, PBS wash, pure phytochemical compounds, mean ± SD, n=3, read-out: EC50 for inhibition of peroxyl radical-induced DCFH oxidation.
Setting [4] is: HepG2, Example 1, Table 1, no PBS wash, pure phytochemical compounds, mean ± SD, n=3, read-out: EC50 for inhibition of peroxyl radical-induced DCFH oxidation.

Turning to `Oc1cc(O)c2c(c1)O[C@H](c1ccc(O)c(O)c1)[C@H](O)C2` [Epicatechin, (−)-epicatechin], the CC50 at 24 h in “in vitro” was > 1000 µM. Besides, the “Cytotoxicity (cytotoxic concentration)” value in the data set with HepG2 cells [1] (human, 24 h) is >500 µM. The CAA in the data set with HepG2 cells [2] (Example 3, Table 7, no PBS wash) is 1.9 ± 0.2 μmol of QE/100 μmol. The EC50 in the data set with HepG2 cells [2] (setting [3]) is > 600 µM; with HepG2 cells [2] (setting [4]), > 200 µM; with HepG2 cells [2] (HepG2, Example 3, Table 7, PBS wash, flavonoids, mean ± SD, n=3, read-out: EC50), > 800 µM; in the data set on HepG2 cells [2] (HepG2, Example 3, Table 7, no PBS wash, flavonoids, mean ± SD, n=3, read-out: EC50) it was 457 ± 47 µM; in the data set with HepG2 cells [2] (HepG2, Example 3, text, no PBS wash, read-out: EC50) it was 457 ± 47 µM.

On to `O=C(O)c1cc(O)c(O)c(O)c1` [Gallic acid], for which the “Cytotoxicity (cytotoxic concentration)” value with HepG2 cells [1] (human, 24 h) was >500 µM. Besides, the CAA value in the data set with HepG2 cells [2] (Example 1, no PBS wash, pure compounds, EC50 converted to quercetin equivalents) came out at 9.08±0.95 μmol QE/100 μmol. Further, the “percent of the antioxidant activity of quercetin in the CAA assay” value in the data set with HepG2 cells [2] (Example 1, summary statement) was “less than ten percent”. Also, the EC50 was 335 ± 26 µM in the data set on HepG2 cells [2] (setting [3]); 65.4 ± 7.3 µM in the data set on HepG2 cells [2] (setting [4]); 64.3 ± 10.7 µM in the data set on HepG2 cells [2] (HepG2, Table 2, no PBS wash, mean ± SD over the trials, read-out: Interexperimental EC50); 65.4 ± 7.3 µM in the data set on HepG2 cells [2] (HepG2, Table 2, no PBS wash, one line per trial (trials 1-5), n=3, read-out: Intraexperimental EC50); 318 ± 36 µM with HepG2 cells [2] (HepG2, Table 3, PBS wash, mean ± SD over the trials, read-out: Interexperimental EC50); 289 ± 12 µM in the data set on HepG2 cells [2] (HepG2, Table 3, PBS wash, one line per trial (trials 1-5), n=3, read-out: Intraexperimental EC50).

With `O=C(CCc1ccc(O)cc1)c1c(O)cc(O)cc1O` [Phloretin, phloretin], the “Cytotoxicity (cytotoxic concentration)” value in the data set with HepG2 cells [1] (human, 24 h) came to 25 µM. Moreover, the EC50 in the data set with HepG2 cells [2] (setting [3]) and in the data set on HepG2 cells [2] (setting [4]) was > 25 µM each time. Also, the “cellular antioxidant activity, result in words” value in the data set on HepG2 cells [2] is on record as “activity only at doses much higher than their cytotoxic concentrations”.

As to `Oc1ccc(C=Cc2cc(O)cc(O)c2)cc1` [Resveratrol, resveratrol], the “Cytotoxicity (cytotoxic concentration)” value in the data set on HepG2 cells [1] (Example 1, dose at which the cell number is reduced by more than 10% after 24 h treatment) came out at 40 µM. Besides, the EC50 in the data set on HepG2 cells [2] (setting [3]) and with HepG2 cells [2] (setting [4]) was > 40 µM each time. The “cellular antioxidant activity, result in words” value in the data set on HepG2 cells [2] was “activity only at doses much higher than their cytotoxic concentrations”.
